This is an account of results in publication PMC10045904, “Polyphenol Profile of Cistus × incanus L. and Its Relevance to Antioxidant Effect and α-Glucosidase Inhibition” (Antioxidants, 2023).

On the set-up of data set [1]: method as in PMID 35458630, PMID 36673365. To be noted: after consumption of ellagitannin-rich foods; cited from earlier work.
The target of data set [2] is T1, α-glucosidase from Saccharomyces cerevisiae (Saccharomyces cerevisiae, UniProt P53341).
T1 construct: purchased Sigma-Aldrich (Germany)
Briefly: α-glucosidase inhibitory assay (p-NPG, 96-well microplate). The conditions noted are these: pure compound at 500 µg/mL, triplicate. The format is biochemical. The method, then: Spectrophotometric measurements were conducted using a Multiskan GO Spectrophotometer (Thermo-Fisher Scientific). The %Inhibition was calculated from the formula % inhibition=(AControl− ASample/AControl )×100
The α-glucosidase inhibitory activity was conducted in a 96-well microplate using 4-nitrophenyl-α-D-glucopyranoside (p-NPG), as reported previously. […] […] The microplate with samples and enzyme solution was initially incubated for 5 min at 37 °C. […] The reaction was allowed to run for 10 min and afterward stopped by adding 50 µL of 0.1 M Na2CO3. The absorbance was measured at 405 nm. All of the samples were tested in triplicate.
The readings were reduced by absorbance of the sample blanks measured separately for each extract/polyphenol, which consisted of 50 µL of extract diluted in 150 µL of buffer solution only, while values obtained for uninhibited controls were reduced by absorbance values of the buffer solution (buffer blank). The activity was expressed as %inhibition. The half-maximal inhibitory concentration (IC50) values, defined as concentration of inhibitor necessary to reduce the rate of an enzymatic process by 50%, were calculated as follows: IC50=sample concentration ×50/% inhibition

Data set [3] has as its target T1, α-glucosidase from Saccharomyces cerevisiae. Briefly: Kinetics of α-glucosidase inhibition (Lineweaver–Burk, varying inhibitor and p-NPG concentrations). It is filed as biochemical. To be noted: for Inhibition Type (mode of α-glucosidase inhibition): Lineweaver–Burk plots, p-NPG 1–20 mM, enzyme 0.25 U/mL. The method, then: The readings were reduced by absorbance of the sample blanks measured separately for each extract/polyphenol, which consisted of 50 µL of extract diluted in 150 µL of buffer solution only, while values obtained for uninhibited controls were reduced by absorbance values of the buffer solution (buffer blank). The activity was expressed as %inhibition. The half-maximal inhibitory concentration (IC50) values, defined as concentration of inhibitor necessary to reduce the rate of an enzymatic process by 50%, were calculated as follows: IC50=sample concentration ×50/% inhibition […]
Inhibition modes of α-glucosidase were determined according to Chu et al.. […] After 5 min of preincubation, the addition of the substrate started the reaction, and the changes in absorbance were measured at 30 s intervals. The uninhibited reaction was also run. The reaction was terminated after 10 min, and the absorbance values obtained in the kinetic study were used to create Lineweaver–Burk plots of 1/v against 1/[S].
S3. Ability of α‐glucosidase inhibition by C. incanus
Figure S1. Inhibition of α‐glucosidase by C. incanus extracts at different concentrations.
The absorbance values have been used to determine the changes in Michaelis con‐ stant (Km) and maximum velocity of reaction (Vmax). At first, the change in absorbance over time was converted to absorbance units per minute and then expressed as micromoles of chromogenic product (p‐Np) liberated in the enzymatic reaction in order to determine reaction velocity. The molar extinction coefficient of p‐NP used in the calculation was de‐ termined from its standard curve. The reciprocal of reaction velocity values of each tested compound and extract at different substrate concentrations were then plotted against the reciprocal of substrate concentrations. The intercepts of the created trendlines were uti‐ lized to calculate Km and Vmax values of each enzymatic reaction, and evaluation of altera‐

[4] abbreviates: read-out: IC50 [µM] α-glucosidase.
Setting [5] is: read-out: IC50 [µg/mL] α-glucosidase (converted).

Converted amounts (≈) assume the structure as drawn. “And” between values parts separate entries of the source, which are not always exact repeats. Identical values can stand only once. Like-named read-outs stand apart in the source and are kept apart here. Bounds are passed on as bounds.

T1 sequence (P53341 whole entry): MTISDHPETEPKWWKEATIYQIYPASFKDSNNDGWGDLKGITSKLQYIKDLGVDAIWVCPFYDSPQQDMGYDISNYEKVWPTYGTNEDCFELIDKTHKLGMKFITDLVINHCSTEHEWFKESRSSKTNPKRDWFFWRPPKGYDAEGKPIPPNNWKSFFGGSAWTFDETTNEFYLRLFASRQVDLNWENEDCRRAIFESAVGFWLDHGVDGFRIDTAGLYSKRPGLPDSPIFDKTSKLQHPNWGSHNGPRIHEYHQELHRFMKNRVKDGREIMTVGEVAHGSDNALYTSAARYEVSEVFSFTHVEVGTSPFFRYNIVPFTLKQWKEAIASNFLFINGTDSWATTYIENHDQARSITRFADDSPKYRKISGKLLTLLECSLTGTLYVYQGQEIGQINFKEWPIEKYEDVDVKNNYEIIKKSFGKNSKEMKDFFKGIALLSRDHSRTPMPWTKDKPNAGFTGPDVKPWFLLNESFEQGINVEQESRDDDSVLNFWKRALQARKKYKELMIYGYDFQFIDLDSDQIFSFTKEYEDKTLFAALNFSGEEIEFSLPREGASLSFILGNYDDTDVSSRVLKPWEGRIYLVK

Turning to `O=C1O[C@H]2[C@@H]3OC(=O)c4cc(O)c(O)c(O)c4-c4c(O)c(O)c5oc(=O)c6c(c(O)c(O)c7oc(=O)c4c5c76)-c4c(cc(O)c(O)c4O)C(=O)OC[C@H]3OC(O)[C@@H]2OC(=O)c2cc(O)c(O)c(O)c2-c2c1cc(O)c(O)c2O` (mixture of isomers) [Punicalagin, punicalagin], in data set [1], the “absorption into the bloodstream” value is given as “not absorbed into the bloodstream”. The same compound registered an inhibition at 500 µg/mL in data set [2] greater than 70%. Besides, in data set [3], the “Inhibition Type (mode of α-glucosidase inhibition)” value (shortened to “Inhibition Type”) is “competitive”. Also, the IC50 was 1.1 µM and 1.14 µM in data set [3] (setting [4]); 1.13 µM in data set [3] (setting [5]).

As for `O=C1OC[C@H]2OC(O)[C@H](O)[C@@H](O)[C@@H]2OC(=O)c2cc(O)c(O)c(O)c2-c2c(O)c(O)c3oc(=O)c4c(c(O)c(O)c5oc(=O)c2c3c54)-c2c1cc(O)c(O)c2O` (mixture of isomers) [punicalin], in data set [1], the “absorption into the bloodstream” value is “not absorbed into the bloodstream”.

As to `C[C@H]1O[C@H](O[C@H]2[C@H](O)[C@@H](O)[C@@H](O[C@H]3[C@H](O)[C@@H](O)C(O)O[C@@H]3CO)O[C@@H]2CO)[C@H](O)[C@@H](O)[C@@H]1N[C@H]1C=C(CO)[C@@H](O)[C@H](O)[C@H]1O` (some centres unmarked) [Acarbose, acarbose, reference compound], 500 µg/mL produced 13.7% inhibition in data set [2]. Besides, the “Inhibition Type” value in data set [3] is listed as “competitive”.

In data set [2], `O=c1oc2c(O)c(O)cc3c(=O)oc4c(O)c(O)cc1c4c23` [Ellagic acid, ellagic acid] registered an inhibition at 500 µg/mL greater than 70% and a α-glucosidase %inhibition of 81.9%. The “Inhibition Type” value in data set [3] is listed as “mixed”. The IC50 in data set [3] (setting [4]) was 11 µM and 10.8 µM. The IC50 in data set [3] (setting [5]) was 10.8 µM.

Regarding `O=C(O)c1cc(O)c(O)c(O)c1` [Gallic acid, gallic acid], in data set [2], the inhibition at 500 µg/mL is greater than 70% and the α-glucosidase %inhibition came to 82.8%. In addition, in data set [3], the “Inhibition Type” value is given as “mixed”. Further, in data set [3] (setting [4]), the IC50 turned out to be 686 µM. In addition, the IC50 in data set [3] (setting [5]) is 688 µM and 686 µM.

In data set [2], `O=C(OC[C@H]1OC(O)[C@@H]2OC(=O)c3cc(O)c(O)c(O)c3-c3c(cc(O)c(O)c3O)C(=O)O[C@H]2[C@@H]1OC(=O)c1cc(O)c(O)c(O)c1-c1c(O)c(O)c2oc(=O)c3cc(O)c(O)c4oc(=O)c1c2c43)c1cc(O)c(O)c(O)c1` (some centres unmarked) [Terflavin A, terflavin A] returned a α-glucosidase %inhibition greater than 70%. In data set [3], the “IC50 [µg/mL] α-glucosidase” value was found to be 1.19 µg/mL (≈ 1.1 µM) and the “Inhibition Type” value is given as “mixed”. The IC50 in data set [3] (setting [4]) was determined as 1.1 µM.

Regarding `O=C(/C=C/c1ccc(O)cc1)OC[C@H]1O[C@@H](Oc2c(-c3ccc(O)cc3)oc3cc(O)cc(O)c3c2=O)[C@H](O)[C@@H](O)[C@@H]1O` [Tiliroside, kaempferol-3-O-β-(6″-O-p-coumaroyl)glucoside], in data set [2], the inhibition at 500 µg/mL was greater than 70% and the α-glucosidase %inhibition stood at 73.6%. For the same compound, the “Inhibition Type” value in data set [3] is reported as “mixed”. Besides, the IC50 in data set [3] (setting [4]) worked out at 283 µM. Moreover, in data set [3] (setting [5]), the IC50 is 283 µM.

`O=c1c(O[C@@H]2O[C@H](CO)[C@H](O)[C@H](O)[C@H]2O)c(-c2ccc(O)c(O)c2)oc2cc(O)cc(O)c12` [hyperoside, quercetin-3-O-β-galactoside]: in data set [2], the inhibition at 500 µg/mL was 26%.

As to `O=c1c(O)c(-c2ccc(O)cc2)oc2cc(O)cc(O)c12` [kaempferol], at 500 µg/mL the inhibition in data set [2] was 17.6%.

As for `O=c1c(O)c(-c2ccc(O)c(O)c2)oc2cc(O)cc(O)c12` [quercetin], the inhibition at 500 µg/mL in data set [2] lay within 30 to 40%.

In data set [2], Cistusin had a α-glucosidase %inhibition greater than 70%. Besides, the “IC50 [µg/mL] α-glucosidase” value in data set [3] is 0.83 µg/mL. Also, the “Inhibition Type” value in data set [3] is listed as “mixed”. The IC50 was 0.7 µM in data set [3] (listed as cistusin, read-out: IC50 [µM] α-glucosidase) and 0.66 µM in data set [3] (setting [4]).

What is called inhibition is the percentage by which the read-out fell short of the control.
